Data from ChEMBL document CHEMBL6109106, “Rational design, synthesis and anti-inflammatory activity of 6-substituted dihydrobenzophenanthridine derivatives” (Bioorg Med Chem, 2025).
Active and inactive are the calls of the source. The calls are words filed in the database; no cut-off is given here.

Key:
[1] = (§1) Cytotoxicity against mouse RAW264.7 cells assessed as survival rate at 20 uM incubated for 24 hrs by MTT assay (reference value: 100 %); assay type: toxicity, cell-based; conditions: RAW264.7 cells, read-out: Survival
RAW264.7 [2] = assay: Anti-inflammatory activity in LPS-induced mouse RAW264.7 cells assessed as NO emission at 20 uM preincubated with compound for 1 hrs followed by LPS stimulation and measured after 24 hrs by Griess reagent based analysis (reference value: 14.05 +/- 1.19 microM); assay type: functional; conditions: time 25 hrs
RAW264.7 [3] = assay: Anti-inflammatory activity in LPS-induced mouse RAW264.7 cells assessed as inhibition of NO release at 20 uM preincubated with compound for 1 hrs followed by LPS stimulation and measured after 24 hrs by Griess reagent based analysis (reference value: 0 %); assay type: functional; conditions: for inhibition at 20 µM: Mus musculus; for inhibition (INH): time 25 hrs
RAW264.7 [4] = assay: Cytotoxicity against mouse RAW264.7 cells assessed as reduction in cell viability up to 160 uM incubated for 24 hrs by MTT assay; assay type: toxicity, cell-based; conditions: raw264.7, 24 h
RAW264.7 [5] = assay: Anti-inflammatory activity in LPS-induced mouse RAW264.7 cells assessed as reduction in IL-6 level at >40 uM preincubated with compound for 1 hrs followed by LPS stimulation and measured after 24 hrs by ELISA; assay type: functional, cell-based; conditions: time 25.0 hrs
RAW264.7 [6] = assay: Anti-inflammatory activity in LPS-induced mouse RAW264.7 cells assessed as reduction in TNFalpha level at >20 uM preincubated with compound for 1 hrs followed by LPS stimulation and measured after 24 hrs by ELISA; assay type: functional, cell-based; conditions: time 25.0 hrs
RAW264.7 [7] = assay: Anti-inflammatory activity in LPS-induced mouse RAW264.7 cells assessed as reduction in IL-6 level preincubated with compound for 1 hrs followed by LPS stimulation and measured after 24 hrs by ELISA; assay type: functional, cell-based; conditions: dose 10-160 µM, time 25.0 hrs
RAW264.7 [8] = assay: Anti-inflammatory activity in LPS-induced mouse RAW264.7 cells assessed as reduction in TNFalpha level preincubated with compound for 1 hrs followed by LPS stimulation and measured after 24 hrs by ELISA; assay type: functional, cell-based; conditions: dose 10-160 µM, time 25.0 hrs
Mus musculus [9] = assay: Anti-inflammatory activity in DSS-induced acute colitis male C57BL/6 mouse model assessed as increase in intestine length at 20 to 80 mg/kg, po administered for 7 days; assay type: functional, organism-based; conditions: dose 20-80 mg/kg, time 7.0 day
Mus musculus [10] = assay: Anti-inflammatory activity in DSS-induced acute colitis male C57BL/6 mouse model assessed as complete colonic mucosa with crypts administered orally for 7 days by H and E staining based analysis; assay type: functional, organism-based; conditions: dose 20-80 mg/kg, route po, time 7.0 day
Mus musculus [11] = assay: Anti-inflammatory activity in DSS-induced acute colitis male C57BL/6 mouse model assessed as reduction in infiltration of inflammatory cells in colon administered orally for 7 days by H and E staining based analysis; assay type: functional, organism-based; conditions: dose 20-80 mg/kg, route po, time 7.0 day
Mus musculus [12] = assay: Anti-inflammatory activity in DSS-induced acute colitis male C57BL/6 mouse model assessed as decrease in TNF-alpha expression level in colon at 20 to 80 mg/kg, po administered for 7 days by immunohistochemical staining based analysis; assay type: functional, organism-based; conditions: dose 20-80 mg/kg, time 7.0 day
Mus musculus [13] = assay: Anti-inflammatory activity in DSS-induced acute colitis male C57BL/6 mouse model assessed as decrease in IL6 expression level in colon at 20 to 80 mg/kg, po administered for 7 days by immunohistochemical staining based analysis; assay type: functional, organism-based; conditions: dose 20-80 mg/kg, time 7.0 day
Mus musculus [14] = assay: Anti-inflammatory activity in DSS-induced acute colitis male C57BL/6 mouse model assessed as decrease in IL1beta expression level in colon at 20 to 80 mg/kg, po administered for 7 days by immunohistochemical staining based analysis; assay type: functional, organism-based; conditions: dose 20-80 mg/kg, time 7.0 day
Mus musculus [15] = assay: Anti-inflammatory activity in DSS-induced acute colitis male C57BL/6 mouse model assessed as complete colonic mucosa with crypts at 200 mg/kg, po administered for 7 days by H and E staining based analysis; assay type: functional, organism-based; conditions: time 7.0 day
Mus musculus [16] = assay: Anti-inflammatory activity in DSS-induced acute colitis male C57BL/6 mouse model assessed as reduction in infiltration of inflammatory cells in colon at 200 mg/kg, po administered for 7 days by H and E staining based analysis; assay type: functional, organism-based; conditions: time 7.0 day
RAW264.7 [17] = assay: as §1; assay type: toxicity, cell-based; conditions: raw264.7, 24 h, 20 µM

Compound | viability at 24 h, 20 µM [1] [%] | Activity (RAW264.7 [2]) [µM] | inhibition at 20 µM (RAW264.7 [3]; RAW264.7, 25 h) [%] | further results
COc1ccc2c(c1OC)C(CC(=O)Nc1ccccc1)N(C)c1c-2ccc2cc3c(cc12)OCO3 (centres undefined) | 136 | 8.16 | 41.6 | Activity (RAW264.7 [4]): Non-toxic; Activity (RAW264.7 [5]): Active; Activity (RAW264.7 [6]): Active; Activity (RAW264.7 [7]): Dose-dependent-effect; Activity (RAW264.7 [8]): Dose-dependent-effect; Activity (Mus musculus [9]): Active; Activity (Mus musculus [10]): Dose-dependent-effect; Activity (Mus musculus [11]): Dose-dependent-effect; Activity (Mus musculus [12]): Active; Activity (Mus musculus [13]): Active; Activity (Mus musculus [14]): Active
COC(=O)CCC1c2c(ccc3c2OCO3)-c2ccc3cc4c(cc3c2N1C)OCO4 (centres undefined) | 110 | 10.94 | 21.4 | –
CCCCNC(=O)CC1c2c(ccc(OC)c2OC)-c2ccc3cc4c(cc3c2N1C)OCO4 (centres undefined) | 92.1 | 8.22 | 41.1 | –
CCOC(=O)CC1c2c(ccc(OC)c2OC)-c2ccc3cc4c(cc3c2N1C)OCO4 (centres undefined) | 94.4 | 9.56 | 31.3 | –
Nc1ccc(O)c(C(=O)O)c1 | – | – | – | Activity (Mus musculus [15]): Active; Activity (Mus musculus [16]): Active
COC(=O)CCC1c2c(ccc(OC)c2OC)-c2ccc3cc4c(cc3c2N1C)OCO4 (centres undefined) | 97.7 | 10.11 | 27.5 | –
CCC(C)C1c2c(ccc3c2OCO3)-c2ccc3cc4c(cc3c2N1C)OCO4 (centres undefined) | 114 | 13.15 | 5.57 | –
CCCOC(=O)C(C)C1c2c(ccc(OC)c2OC)-c2ccc3cc4c(cc3c2N1C)OCO4 (centres undefined) | 122 | 12.5 | 10.3 | –
CN1c2c(ccc3cc4c(cc23)OCO4)-c2ccc3c(c2C1CCO)OCO3 (centres undefined) | 160 | 11.57 | 10.1 | –
CN1Cc2c(ccc3c2OCO3)-c2ccc3cc4c(cc3c21)OCO4 [DIHYDROSANGUINARINE] | 88.7 | 10.36 | – | inhibition at 20 µM (RAW264.7 [3]; RAW264.7, time 25 hrs): 26.1%
COc1ccc2c(c1OC)C(CCO)N(C)c1c-2ccc2cc3c(cc12)OCO3 (centres undefined) | 103 | 9.75 | 30.1 | –
C=C(CC1c2c(ccc(OC)c2OC)-c2ccc3cc4c(cc3c2N1C)OCO4)C(=O)OC (centres undefined) | 130 | 10.14 | 27.2 | –
COc1ccc2c(c1OC)CN(C)c1c-2ccc2cc3c(cc12)OCO3 [DIHYDROCHELERYTHRINE] | 94.3 | 9.91 | 28.9 | –
CN1c2c(ccc3cc4c(cc23)OCO4)-c2ccc3c(c2C1CC(=O)O)OCO3 (centres undefined) | – | 9.55 | – | Survival (RAW264.7 [17]): 93.19%; inhibition (INH) (RAW264.7 [3]): 31.45%
COc1ccc2c(c1OC)C(CC(=O)O)N(C)c1c-2ccc2cc3c(cc12)OCO3 (centres undefined) | – | 9.1 | – | Survival (RAW264.7 [17]): 82.98%; inhibition (INH) (RAW264.7 [3]): 34.87%
CCCCNC(=O)CC1c2c(ccc3c2OCO3)-c2ccc3cc4c(cc3c2N1C)OCO4 (centres undefined) | 101 | 10.48 | 24.5 | –
COC(=O)C(C)C1c2c(ccc(OC)c2OC)-c2ccc3cc4c(cc3c2N1C)OCO4 (centres undefined) | 101 | 11.2 | 19 | –
CCOC(=O)CC1c2c(ccc3c2OCO3)-c2ccc3cc4c(cc3c2N1C)OCO4 (centres undefined) | 109 | 10.5 | 24.5 | –
CN1c2c(ccc3cc4c(cc23)OCO4)-c2ccc3c(c2C1CC(=O)[O-])OCO3.[Na+] (centres undefined) | 91.8 | 11.66 | 16.1 | –
CCC(C)C1c2c(ccc(OC)c2OC)-c2ccc3cc4c(cc3c2N1C)OCO4 (centres undefined) | 91.3 | 11.52 | 17 | –
C=C(CC1c2c(ccc3c2OCO3)-c2ccc3cc4c(cc3c2N1C)OCO4)C(=O)OC (centres undefined) | 111 | 12.66 | 9.4 | –
CN1c2c(ccc3cc4c(cc23)OCO4)-c2ccc3c(c2C1CC(=O)Nc1ccccc1)OCO3 (centres undefined) | 125 | 9.28 | 33.1 | –
COc1ccc2c(c1OC)C(CC(=O)[O-])N(C)c1c-2ccc2cc3c(cc12)OCO3.[Na+] (centres undefined) | 98.8 | 12.98 | – | inhibition (INH) (RAW264.7 [3]): 6.77%
